The values that follow come from patent publication US20260207605A1, “KRAS G12D INHIBITORS AND USES THEREOF” (Abbisko Therapeutics Co., Ltd., priority 2022, published 2026).

For data set [1], the system named is AsPC-1. Nature of the data set: Anti-proliferative 2D CTG assay, AsPC-1. The following applies: AsPC-1 cells, 4 days incubation, read-out: AsPC-1 cell IC50. It counts as cell-based. The protocol:
(§1) 1.1 Day 0 Cell Culture and Plating
(§2) Cells in a logarithmic growth phase were harvested and the cells were counted by using a […]. Cell viability was tested by using a trypan blue exclusion method to ensure that cell viability was above 90%. The cell concentration was adjusted to the desired final density, and 90 μL of cell suspension was added to a 96-well plate, then the cells were incubated overnight at 37° C., 5% CO2 and 95% humidity.
(§3) 10 μL PBS was added to each well of the TO plate containing cells. The CTG reagent was thawed and the plate was equilibrated to room temperature for 30 minutes. The CTG solution of 50 µL/well was added to each well. The cells were lysed by shaking on an orbital shaker for 5 minutes. The plate was left at room temperature for 20 minutes to stabilize the luminescence signal. The TO fluorescence signal value was read.
(§4) From the 10 mM stock solution, with a ratio of 1:5, 9-point serial dilutions were performed. The 10× medium containing the compound was transferred into corresponding wells of the 96 wells. The final maximum compound concentration was […] and the final DMSO concentration was 0.1%. The 96-well plate was placed in a 37° C. incubator and incubated for 4 days.
(§5) 50 μL/well of detection reagent (CTG) was added to the cells, and the signal was read in an Envision machine.
(§6) The percent inhibition (%) at each compound concentration was calculated from the signal in the HPE and ZPE control wells and the fluorescence signal in the individual compound wells included in each assay plate. […] The compound concentration required for inhibitory concentration at 50% (IC50) was determined using a four-parameter logarithmic dose-response equation by testing the concentration of the compound and the inhibition percentage value. The endpoint value (IC50) of the reference compound was assessed in each experiment as a quality control measure. If the endpoint value is within three times the expected value, the experiment may be considered acceptable.

The subject of data set [2] is AGS. Description: Anti-proliferative 2D CTG assay, AGS. It counts as cell-based. The following applies: AGS cells, 4 days incubation, read-out: AGS cell IC50. The procedure:
as §1, §2, §3, §4, §5, §6

Data set [3] deals with LS513. Nature of the data set: Anti-proliferative 2D CTG assay, LS513. It counts as cell-based. The following applies: Homo sapiens, LS-513, 96 h, LS513 cells, 4 days incubation, read-out: LS513 cell IC50. The procedure: as §1, §2, §3, §4, §5, §6
For data set [4], the system named is HPAC. Description: Anti-proliferative 2D CTG assay, HPAC. The class given is cell-based. The following applies: Homo sapiens, 96 h, HPAC cells, 4 days incubation, read-out: HPAC cell IC50. The protocol:
as §1, §2, §3, §4, §5, §6

Data set [5] can be described thus: Pharmacokinetic experiment in mice (single PO or IV administration). The following applies: male, ICR, mouse, plasma.
Excerpt: The purpose of this trial is to study the pharmacokinetic behavior of some compounds of the present invention, and the administration method is: single oral administration (PO) or intravenous administration (IV) to ICR mice.
ICR mice male N=9 original source: Shanghai Sippr-Bk Lab Animal Co., Ltd.
The compounds were weighed and dissolved in the corresponding solution (0.5% CMC+1% tween water solution or 10% PG+10% Solutol®+80% pH3 citrate buffer). The mixture was then shaken well and sonicated to prepare a 1 mg/mL stock solution. Nine mice were orally administered at a dose of 10 mg/kg or intravenously administered at a dose of 2 mg/kg after an overnight fast.
About 90 μL of blood was collected via the submandibular vein per time point, heparin sodium anticoagulant was added, the sample was placed on ice after collection, and plasma was centrifuged within 1 hour (centrifugation conditions: 8,000 rpm, 6 minutes, 2-8° C.). The blood collection timepoints were 0, 0.25, 0.5, 1, 2, 4, 6, 8 and 24 h. The samples were stored in a −20° C. refrigerator.
The plasma sample was 40 μL, 160 μL of ice-cold acetonitrile containing internal standard was added, vortexed for 3 minutes, and centrifuged at 11,000 rpm for 5 minutes. 100 μL of the supernatant was taken and added to 100 μL of water, 5 μL of the sample was taken and injected into LC/MS/MS for analysis.
Data set [6] deals with KRAS^G12D/cRAF (Homo sapiens, UniProt P01116, G12D). Description: KRAS G12D/cRAF binding test (Alphalisa). The following applies: His-tagged KRAS G12D with GMPPNP, GST-tagged cRAF. The protocol:
The compound was dissolved in 100% DMSO at a starting concentration of 5 mM and diluted in DMSO with a 3-fold serial dilution method for a total of 8 concentration points. 1 μL of the compound or DMSO at each concentration point was added into 99 μL of the experimental buffer to obtain 10× stock solution.
The ratio for each compound concentration was calculated from the signal of the DMSO control group contained in each assay plate and the Alphalisa signal in each compound well. The compound concentration required for inhibitory concentration at 50% (IC50) was determined using a four-parameter logarithmic dose-response equation by testing the concentration of the compound and the value of the ratio. The endpoint value (IC50) of the reference compound was assessed in each experiment as a quality control measure. If the endpoint value is within three times the expected value, the experiment may be considered acceptable.

Read-outs that look alike come from different tables or passages of the source.

KRAS^G12D/cRAF, sequence (P01116 1-188 isoform P01116-2 G12D): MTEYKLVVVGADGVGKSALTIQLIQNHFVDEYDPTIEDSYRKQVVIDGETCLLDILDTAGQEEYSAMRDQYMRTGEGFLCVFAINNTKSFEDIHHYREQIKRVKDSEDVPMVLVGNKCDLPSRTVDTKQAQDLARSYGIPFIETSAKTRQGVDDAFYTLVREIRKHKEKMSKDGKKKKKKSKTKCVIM

The IC50 is the concentration at which inhibition is half-maximal. What is called AUC is the area under the concentration-time curve, a measure of exposure. What is called Cmax is the peak of the concentration-time curve. As usually defined, the bioavailability is dose-corrected exposure relative to a reference, in per cent. On to `C#Cc1c(F)ccc2cc(O)cc(-c3ncc4c(N5CC6CCC(C5)N6)nc(OC[C@@]56CCCN5C[C@H](F)C6)nc4c3F)c12` [Positive Compound 1, reference compound], for which the IC50 in data set [1] (Homo sapiens, ASPC1, 96 h) is 34.9 nM; in data set [2] (Homo sapiens, AGS, 96 h), 4.2 nM; in data set [3], 18.1 nM; in data set [4], 10.3 nM. Besides, the AUC in data set [5] (iv, 2 mg/kg) turned out to be 367 ng·h/mL; in data set [5] (po, 10 mg/kg), 40.2 ng·h/mL. For the same compound, the Cmax in data set [5] (iv, 2 mg/kg) was 1130 ng/mL; in data set [5] (po, 10 mg/kg), 20.6 ng/mL. Further, the bioavailability in data set [5] (po, 10 mg/kg) amounted to 2.2%.

In the case of `C#Cc1c(F)ccc2cc(O)cc(-c3ncc4c(N5C[C@@H]6CC[C@](C7CC7)(C5)N6)nc(OC[C@@]56CCCN5CC(=C(F)F)C6)nc4c3F)c12` [Example 45, 4-(4-((1S,5S)-1-cyclopropyl-3,8-diazabicyclo[3.2.1]octan-3-yl)-2-(((S)-2-(difluoromethylene)tetrahydro-1H-pyrrolizin-7a (5H)-yl)methoxy)-8-fluoropyrido [4,3-d]pyrimidin-7-yl)-5-ethynyl-6-fluoronaphthalen-2-ol], the IC50 came to 163 nM in data set [3], 133 nM in data set [4] and 52.5 nM in data set [6].

By half-life is commonly meant how long it takes for the measured level to halve. `C#Cc1c(F)ccc2cc(O)cc(-c3ncc4c(N5C[C@@H]6CC[C@](C7CC7)(C5)N6)nc(OC[C@@]56CCCN5C/C(=C\F)C6)nc4c3F)c12` [Example 68, 4-(4-(1-cyclopropyl-3,8-diazabicyclo[3.2.1]octan-3-yl)-8-fluoro-2-(((S,Z)-2-(fluoromethylene)tetrahydro-1H-pyrrolizin-7a (5H)-yl)methoxy)pyrido[4,3-d]pyrimidin-7-yl)-5-ethynyl-6-fluoronaphthalen-2-ol]: the IC50 in data set [1] (Homo sapiens, ASPC1, 96 h) amounted to 190 nM; in data set [2] (Homo sapiens, AGS, 96 h), 33.4 nM; in data set [3], 59.8 nM; in data set [4] it was 83.2 nM; in data set [6], 40.1 nM. For the same compound, the AUC came to 813 ng·h/mL in data set [5] (iv, 2 mg/kg) and 1070 ng·h/mL in data set [5] (po, 10 mg/kg). Also, the Cmax is 887 ng/mL in data set [5] (iv, 2 mg/kg) and 300 ng/mL in data set [5] (po, 10 mg/kg). Moreover, the half-life was 6.3 h in data set [5] (iv, 2 mg/kg) and 5.6 h in data set [5] (po, 10 mg/kg). Also, the bioavailability in data set [5] (po, 10 mg/kg) worked out at 26.4%.

As for `[2H]C([2H])([2H])[C@@]12CC[C@@H](CN(c3nc(OC[C@@]45CCCN4C/C(=C\F)C5)nc4c(F)c(-c5cc(O)cc6ccc(F)c(C#C)c56)c(F)cc34)C1)N2` [Example 229, 4-(6,8-difluoro-2-(((S,Z)-2-(fluoro-methylene)tetrahydro-1H-pyrrolizin-7a(5H)-yl)methoxy)-4-((1R,5S)-1-(methyl-d3)-3,8-diazabicyclo[3.2.1]octan-3-yl)quinazolin-7-yl)-5-ethynyl-6-fluoro-naphthalen-2-ol], the IC50 was determined as 33.3 nM in data set [3], 87.5 nM in data set [4] and 20.6 nM in data set [6].

In the case of `[2H]C([2H])([2H])OC[C@@]12CC[C@@H](CN(c3nc(OC[C@@]45CCCN4C/C(=C\F)C5)nc4c(F)c(-c5cccc6sc(N)c(C#N)c56)c(Cl)cc34)C1)N2` [Example 363, 2-amino-4-(6-chloro-8-fluoro-2-(((S,Z)-2-(fluoromethylene)tetra-hydro-1H-pyrrolizin-7a(5H)-yl)methoxy)-4-((1R,5S)-1-((methoxy-d3)methyl)-3,8-diaza-bicyclo[3.2.1]octan-3-yl)quina-zolin-7-yl)benzo[b]thiophene-3-carbonitrile], the figures for the IC50 in data set [3], in data set [4] and in data set [6] were 82.3 nM, 66.3 nM and 18.6 nM, respectively.

For `C#Cc1c(F)ccc2cc(O)cc(-c3ncc4c(N5C[C@@H]6CC[C@](C7CCCC7)(C5)N6)nc(OC[C@@]56CCCN5C/C(=C\F)C6)nc4c3F)c12` [Example 75, 4-(4-((1S,5S)-1-cyclopentyl-3,8-diazabicyclo[3.2.1]octan-3-yl)-8-fluoro-2-(((S,Z)-2-(fluoromethylene)tetrahydro-1H-pyrrolizin-7a (5H)-yl)methoxy)pyrido[4,3-d]pyrimidin-7-yl)-5-ethynyl-6-fluoronaphthalen-2-ol], the IC50 came out at 14.2 nM in data set [2] (Homo sapiens, AGS, 96 h); 56.1 nM in data set [3]; 93.6 nM in data set [4]; 34.5 nM in data set [6].

Turning to `C#Cc1c(F)ccc2cc(O)cc(-c3ncc4c(N5C[C@@H]6CC[C@](CC)(C5)N6)nc(OC[C@@]56CCCN5C[C@H](F)C6)nc4c3F)c12` [Positive Compound 2, reference compound], the IC50 was found to be 83.3 nM in data set [1] (Homo sapiens, ASPC1, 96 h); 9.2 nM in data set [2] (Homo sapiens, AGS, 96 h); 59.4 nM in data set [3]; 33 nM in data set [4].

On to `C#Cc1c(F)ccc2cc(O)cc(-c3ncc4c(N5C[C@@H]6CC[C@](CC)(C5)N6)nc(OC[C@@]56CCCN5C/C(=C\F)C6)nc4c3F)c12` [Example 56, 4-(4-((1R,5S)-1-ethyl-3,8-diazabicyclo[3.2.1]octan-3-yl)-8-fluoro-2-(((S,Z)-2-(fluoromethylene)tetrahydro-1H-pyrrolizin-7a (5H)-yl)methoxy)pyrido[4,3-d]pyrimidin-7-yl)-5-ethynyl-6-fluoronaphthalen-2-ol], for which the IC50 was 9.1 nM in data set [1], 0.6 nM in data set [2], 2.6 nM in data set [3] and 2.5 nM in data set [4].

On to `[2H]C([2H])([2H])C([2H])([2H])[C@@]12CC[C@@H](CN(c3nc(OC[C@@]45CCCN4C/C(=C\F)C5)nc4c(F)c(-c5cccc6sc(N)c(C#N)c56)c(Cl)cc34)C1)N2` [Example 362, 2-amino-4-(6-chloro-4-((1R,5S)-1-(ethyl-d5)-3,8-diazabicyclo [3.2.1]octan-3-yl)-8-fluoro-2-(((S,Z)-2-(fluoromethylene)tetra-hydro-1H-pyrrolizin-7a(5H)-yl)methoxy)quinazolin-7-yl)benzo [b]thiophene-3-carbonitrile], for which the IC50 in data set [3] worked out at 65.7 nM; in data set [4], 61.8 nM; in data set [6] it was 27.7 nM.

For the compound `[2H]C([2H])([2H])C([2H])([2H])[C@@]12CC[C@@H](CN(c3nc(OC[C@@]45CCCN4CC(=C)C5)nc4c(F)c(-c5cc(N)cc6ccc(F)c(C#C)c56)ncc34)C1)N2` [Example 357, 4-(4-((1R,5S)-1-(ethyl-d5)-3,8-diazabicyclo[3.2.1]octan-3-yl)-8-fluoro-2-(((S)-2-methylenetetrahydro-1H-pyrrolizin-7a(5H)-yl)methoxy)pyrido[4,3-d]pyrimidin-7-yl)-5-ethynyl-6-fluoronaphthalen-2-amine], the IC50 in data set [2] (Homo sapiens, AGS, 96 h) worked out at 23 nM; in data set [3], 57.4 nM; in data set [4] it was 46.9 nM.

As to `[2H]C([2H])([2H])C([2H])([2H])[C@@]12CC[C@@H](CN(c3nc(OC[C@@]45CCCN4CC(=C(F)F)C5)nc4c(F)c(-c5cc(O)cc6ccc(F)c(C#C)c56)ncc34)C1)N2` [Example 47, 4-(2-(((S)-2-(difluoromethylene)tetrahydro-1H-pyrrolizin-7a (5H)-yl)methoxy)-4-((1R,5S)-1-(ethyl-d5)-3,8-diazabicyclo [3.2.1]octan-3-yl)-8-fluoropyrido [4,3-d]pyrimidin-7-yl)-5-ethynyl-6-fluoronaphthalen-2-ol], the IC50 in data set [1] (Homo sapiens, ASPC1, 96 h) was found to be 46.3 nM; in data set [2] (Homo sapiens, AGS, 96 h) it was 4.8 nM; in data set [3], 23.9 nM; in data set [4] it was 23.1 nM; in data set [6] it was 14.6 nM.

On to `[2H]C([2H])([2H])C([2H])([2H])[C@@]12CC[C@@H](CN(c3nc(OC[C@@]45CCCN4C/C(=C\F)C5)nc4c(F)c(-c5ccc(F)c6sc(N)c(C#N)c56)c(Cl)cc34)C1)N2` (single isomer, unassigned) [Example 361], for which the IC50 in data set [3] is 40 nM. Further, the IC50 in data set [4] came out at 38 nM. In data set [5] (iv, 2 mg/kg), the AUC was found to be 221 ng·h/mL, the concentration peaked (Cmax) at 179 ng/mL and the half-life was 13.7 h. Moreover, in data set [5] (po, 10 mg/kg), the AUC is 370 ng·h/mL, the peak level (Cmax) was 164 ng/mL, the bioavailability was 33.5% and the half-life was 9.6 h. In addition, in data set [6], the IC50 was 7.1 nM.
